Here are results for 20 compounds from EP0149197B2, “Pharmaceutical compositions containing drugs which are sparingly soluble in water or instable and methods for their preparation” (priority 1983, dated 1985).

The conditions of data set [1]: with the 2,6-Di-O-methylderivat of β-cyclodextrin; cited from earlier work.
Data set [2] in a line: Saturation solubility with and without 4 % hydroxypropyl-methyl-β-cyclodextrin (DS 0,96; MS 0,43). The data set is classed as physicochemical. The text has this: B. In ähnlicher Weise wurde die Löslichkeit von Arzneistoffen in einer 4 %-igen wässrigen Lösung von Hydroxypropyl-methyl-β-cyclodextrin (DS = 0,96; MS = 0,43) untersucht. Die erhaltenen Ergebnisse sind in der nachfolgenden Tabelle 2 zusammengefaßt, wobei für jeden Arzneistoff das Verhältnis R von Sättigungslöslichkeit in Wasser bzw. beim angegebenen pH-Wert mit und ohne Zusatz des β-Cyclodextrinderivats angegeben ist.

The nature of data set [3]: Saturation solubility in phosphate buffer with and without 10 % hydroxypropyl-β-cyclodextrin (MS 0.35). The settings on record: for Verh.S1 zu S2: given as 1: x; for solubility thermodynamic at 24 h: phosphate buffer. As for the experimental part: A. Unter Verwendung einer 10 %-igen Hydroxypropyl-β-cyclodextrinlösung (MS 0.35) in Phosphatpufferlösung wurde unter denselben Bedingungen wie in Beispiel 1 die Sättigungslöslichkeit bei 25°C für verschiedene Arzneistoffe bestimmt. In Tabelle 1 sind die Sättigungslöslichkeit S1 in Phosphatpufferlösung und S2 in Phosphatpufferlösung unter Zusatz von 10 % Hydroxypropyl-β-cyclodextrin angegeben. Tabelle 1

In data set [4] the test system is roten Blutkörperchen (menschlichen Ursprungs). The format is cell-based. The settings on record: human, 30 min. As for the experimental part: In einer weiteren Versuchsreihe wurde die hämolytische Wirkung der Methylether gemäß DE-A-3 118 218 mit derjenigen eines erfindungsgemäß verwendeten Ethers verglichen. Dazu wurden 100 µl einer physiologischen Kochsalzlösung mit einem Cyclodextringehalt von 10 %, 800 µl eines Puffers (400 mg MOPS, 36 mg Na2HPO4·2 H2O, 1,6 g NaCl in 200 ml H2O) und 100 µl einer Suspension von roten Blutkörperchen (menschlichen Ursprungs, dreimal mit Kochsalzlösung gewaschen), 30 Min. lang bei 37°C gemischt. Anschließend wurde zentrifugiert und die Extinktion bei 540 mn bestimmt.
Kontrollen: • a) 100 µl Kochsalzlösung + Puffer → 0 % Hämolyse • b) 900 µl Wasser → 100 % Hämolyse
Die gefundenen Ergebnisse sind in der nachfolgenden Tabelle 6 zusammengefaßt, wobei die Konzentrationen angegeben sind, bei denen eine 50 %-ige bzw. eine 100 % Hämolyse stattfand. Tabelle 6

The subject of another data set is Ratten. Kind of data set: Acute intravenous toxicity in rats. The settings on record: rat, i.v. The format is in vivo. The text has this:
(§1) Die akute intravenöse Toxizität von einigen β-Cyclodextrinen wurde an Ratten untersucht, wobei die nachfolgenden Ergebnisse erhalten wurden. Dabei zeigte sich, daß die Toxizität der erfindungsgemäß eingesetzten Derivate überraschend eine ganze Größenordnung niedriger ist. Tabelle 5

Data set [5] is described as follows: Storage stability of indometacin solutions at 21°C, HPLC content. The settings on record: aqueous buffer; concentration of the saturated solution in phosphate buffer (solution A); read-out: gesättigte Lösung in Phosphatpufferlösung. The format is physicochemical. As for the experimental part:
In 10 ml Phosphatpufferlösung wurden bei 25°C 0,7 g Hydroxyethyl-β-cyclodextrin (MS 0.43) und 0,04 g Indometacin bis zur klaren Lösung eingearbeitet. Diese wurde durch ein Membranfilter (0,22 µm) filtriert und unter Laminarflow in eine vorsterilisierte Injektionsflasche abgefüllt, die bei 21°C eingelagert wurde (B). Parallel dazu wurde eine gesättigte Indometaeinlösung in Phosphatpufferlösung (0,21 mg/ml) unter gleichen Bedingungen aufbewahrt (A). Die hochdruckflüssigkeitschromatographisch ermittelten Wirkstoff-Konzentrationen sind in Tabelle 3 wiedergegeben. Die wesentlich verbesserte Stabilität des erfindungsgemäßen Präparates ist offensichtlich. Tabelle 3

The conditions of data set [6]: in water; cited from earlier work.
The nature of data set [7]: Acute intravenous toxicity in rats. The format is in vivo, Ratten. The settings on record: rat, in vivo, iv.
Description: as §1

The conditions of data set [8]: phosphate buffer, pH 6.6.
Description: Die in den Beispielen genannte Phosphatpuffer-Lösung hatte einen pH-Wert von 6.6 und folgende Zusammensetzung:
Data set [9] in a line: Dissolution rate of medroxyprogesterone acetate from tablets. The format is physicochemical. The settings on record: tablet with Hydroxyethyl-β-cyclodextrin (MS 0.43) versus same tablet excipients without β-cyclodextrin ether. As for the experimental part: In 100 ml Wasser wurden 7 g Hydroxyethyl-β-cyclodextrin (MS 0.43) sowie 0,5 g Medroxyprogesteronacetat gelöst. Anschließend wurde das Wasser auf einem Rotationsverdampfer abgezogen. Der Rückstand […] wurde pulverisiert und mit 366 mg Calcium-hydrogenphosphat. 2H2O, 60 mg Maisstärke, 120 mg Cellulosepulver(mikrokristallin), 4,2 mg hochdisperse Kieselsäure (Aerosil® 200) und 4,8 mg Magnesiumstearat zu Tabletten mit einem Endgewicht von 630,0 mg und pro Einzeldosis 5 mg Wirkstoff verarbeitet. Die Lösungsgeschwindigkeit des Medroxyprogesteronacetats aus dieser Zubereitung ist etwa 21 mal höher als bei Einsatz der gleichen Tablettenhilfsstoffe ohne Zusatz des β-Cyclodextrinethers.

Setting [10] is: in water, 4 % Hydroxypropyl-methyl-β-cyclodextrin.

In brackets after ≈: the same amount, converted by molar mass. Where two headings read alike, the source gives them in different places. Marks after values point to notes of the source that are not given here.

With `C[C@H]1O[C@@H](O[C@H]2[C@@H](O)C[C@H](O[C@H]3[C@@H](O)C[C@H](O[C@H]4CC[C@@]5(C)[C@H](CC[C@@H]6[C@@H]5CC[C@]5(C)[C@@H](C7=CC(=O)OC7)CC[C@]65O)C4)O[C@@H]3C)O[C@@H]2C)C[C@H](O)[C@@H]1O` [Digitoxin], the “Steigerung der Löslichkeit in Wasser” value in data set [1] was 81,6 -fache.
For the compound `COc1cc(N)c(Cl)cc1C(=O)NC1CCN(CCCOc2ccc(F)cc2)CC1OC` (stereo not drawn) [Cisaprid], the “Verhältnis R von Sättigungslöslichkeit mit und ohne Zusatz des β-Cyclodextrinderivats” value in [2] was determined as 3.
Turning to Levocabastin, the “Verhältnis R von Sättigungslöslichkeit mit und ohne Zusatz des β-Cyclodextrinderivats” value in data set [2] (pH 7,4, 4 % Hydroxypropyl-methyl-β-cyclodextrin) is 8; in [2] (pH 9,5, 4 % Hydroxypropyl-methyl-β-cyclodextrin), 81.
On to `CC(=O)[C@H]1CC[C@H]2[C@@H]3CCC4=CC(=O)CC[C@]4(C)[C@H]3CC[C@]12C` [Progesteron], for which the “Verh.S1 zu S2” value in data set [3] is recorded as 1083,0. Further, the solubility (thermodynamic) at 24 h was 7690 µg/mL (≈ 24500 µM) in [3] (10% hp-beta-cd, pH 6.6) and 7.1 µg/mL (≈ 22.6 µM) in data set [3] (pH 6.6, aqueous buffer).
Turning to Hydroxypropyl-methyl-β-cyclodextrin, in data set [4], the “C50 % (Konzentration, bei der eine 50 %-ige Hämolyse stattfand)” value is 1,5%; the “C100 % (Konzentration, bei der eine 100 % Hämolyse stattfand)” value worked out at 4%; the “hämolytische Wirkung” value is 5 bis 8 mal geringer. Moreover, the “LD50 bei Ratten (i.v.)” value in the data set with Ratten is listed as > 2000* mg/kg Körpergewicht.
For the compound `CN(C)C(=O)C(CCN1CCC(O)(c2ccc(Cl)cc2)CC1)(c1ccccc1)c1ccccc1` [Loperamid], the “Verhältnis R von Sättigungslöslichkeit mit und ohne Zusatz des β-Cyclodextrinderivats” value in data set [2] (setting [10]) amounted to 62.
Consider Methyl-β-CD [Methyl-β-CD (DS = 1,79)], for which, in [4], the “C50 % (Konzentration, bei der eine 50 %-ige Hämolyse stattfand)” value is recorded as 0,53% and the “C100 % (Konzentration, bei der eine 100 % Hämolyse stattfand)” value is reported as 0,8%.
As for Tubulazol, the “Verhältnis R von Sättigungslöslichkeit mit und ohne Zusatz des β-Cyclodextrinderivats” value in data set [2] (setting [10]) stood at 43.
In the case of “Dimethyl-β-cyclodextrin [Dimethyl-β-cyclodextrin (DS = 2,0)]”, in data set [4], the “C50 % (Konzentration, bei der eine 50 %-ige Hämolyse stattfand)” value is reported as 0,33% and the “C100 % (Konzentration, bei der eine 100 % Hämolyse stattfand)” value was 0,5%. The “LD50 bei Ratten (i.v.)” value in the data set with Ratten was 200 - 207 mg/kg Körpergewicht.
Take `C[C@@H]1C[C@H]2[C@@H]3CCC4=CC(=O)C=C[C@]4(C)[C@@]3(F)[C@@H](O)C[C@]2(C)[C@@]1(O)C(=O)CO` [Dexamethason]: in data set [3], the “Verh.S1 zu S2” value is recorded as 172,0. For the same compound, the solubility (thermodynamic) at 24 h in data set [3] (10% hp-beta-cd, pH 6.6) is 14300 µg/mL (≈ 36400 µM); in data set [3] (pH 6.6, aqueous buffer) it was 83 µg/mL (≈ 211 µM).
Regarding `CC(=O)N1CCN(c2ccc(OCC3COC(Cn4ccnc4)(c4ccc(Cl)cc4Cl)O3)cc2)CC1` (stereo not drawn) [Ketoconazol], the “Verhältnis R von Sättigungslöslichkeit mit und ohne Zusatz des β-Cyclodextrinderivats” value in data set [2] is on record as 85.
Turning to `COc1ccc2c(c1)c(CC(=O)O)c(C)n2C(=O)c1ccc(Cl)cc1` [Indometacin], in data set [5], the solubility was found to be 210 µg/mL (≈ 587 µM). Moreover, in data set [3], the “Verh.S1 zu S2” value is recorded as 30,1. In addition, the thermodynamic solubility at 24 h in [3] (10% hp-beta-cd, pH 6.6) came to 5720 µg/mL (≈ 16000 µM); in data set [3] (pH 6.6, aqueous buffer), 190 µg/mL (≈ 531 µM).
With `CCOC(=O)c1cncn1[C@H](C)c1ccccc1` [Etomidat], the “Verhältnis R von Sättigungslöslichkeit mit und ohne Zusatz des β-Cyclodextrinderivats” value in data set [2] (setting [10]) is 8,5.
Turning to `CN1C(=O)CN=C(c2ccccc2)c2cc(Cl)ccc21` [Diazepam], in data set [3], the “Verh.S1 zu S2” value is reported as 29,4.
Consider `OC[C@H]1O[C@@H]2O[C@H]3[C@H](O)[C@@H](O)[C@@H](O[C@H]4[C@H](O)[C@@H](O)[C@@H](O[C@H]5[C@H](O)[C@@H](O)[C@@H](O[C@H]6[C@H](O)[C@@H](O)[C@@H](O[C@H]7[C@H](O)[C@@H](O)[C@@H](O[C@H]8[C@H](O)[C@@H](O)[C@@H](O[C@H]1[C@H](O)[C@H]2O)O[C@@H]8CO)O[C@@H]7CO)O[C@@H]6CO)O[C@@H]5CO)O[C@@H]4CO)O[C@@H]3CO` [β-Cyclodextrin], for which the Wasserlöslichkeit in data set [6] was 1,8 g pro 100 ml. This compound returned an LD50 in data set [7] of 453 mg/kg.
Take `CCC(C)n1ncn(-c2ccc(N3CCN(c4ccc(OCC5COC(Cn6cncn6)(c6ccc(Cl)cc6Cl)O5)cc4)CC3)cc2)c1=O` (stereo not drawn) [Itraconazol]: the “Verhältnis R von Sättigungslöslichkeit mit und ohne Zusatz des β-Cyclodextrinderivats” value in data set [2] (pH 2) came to 75; in data set [2] (pH 5) it was 96.
In the case of `Fc1ccc(C(c2ccc(F)cc2)N2CCN(C/C=C/c3ccccc3)CC2)cc1` [Flunarizin], in data set [2] (setting [10]), the “Verhältnis R von Sättigungslöslichkeit mit und ohne Zusatz des β-Cyclodextrinderivats” value was 18.
In the case of `COC(=O)Nc1nc2cc(C(=O)c3ccc(F)cc3)ccc2[nH]1` [Flubendazol], the “Verhältnis R von Sättigungslöslichkeit mit und ohne Zusatz des β-Cyclodextrinderivats” value in data set [2] (setting [10]) amounted to 30.
For the compound “Hydroxyethyl-β-cyclodextrin [Hydroxyethyl-β-cyclodextrin (MS 0.43)]”, the “Sättigungslöslichkeit des Cyclodextrinderivates im Puffer” value in data set [8] is reported as 7,2 g/100 ml.
Turning to `CC(=O)OC1(C(C)=O)CCC2C3CC(C)C4=CC(=O)CCC4(C)C3CCC21C` (stereo not drawn) [Medroxyprogesteronacetat], the Lösungsgeschwindigkeit in data set [9] was about 21 mal höher.

For orientation: thermodynamic solubility means the concentration in solution at equilibrium with solid. One may read the LD50 as the dose at which mortality reaches 50%.
